Measured values taken from patent US9556179B2 (BRISTOL-MYERS SQUIBB COMPANY, priority 2012, dated 2017).

Legend:
[1] = target: CK1δ (Homo sapiens (Human), UniProt P48730); test: CK1δ kinase assay (Caliper LABCHIP electrophoretic separation of fluoresceinated peptide substrate and product); assay type: biochemical; conditions: 200 pM enzyme, 50 μM ATP, 22 hours at room temperature
In short: (§1)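 IC50 values were obtained by non-linear regression from eleven-concentration titrations. The kinase reactions were incubated for 22 hours at room temperature before termination with 35 mM EDTA.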

[2] = target: CK1ε (Homo sapiens (Human), UniProt P49674); test: CK1ε kinase assay (Caliper LABCHIP electrophoretic separation of fluoresceinated peptide substrate and product); assay type: biochemical; conditions: 200 pM enzyme, 50 μM ATP, 22 hours at room temperature
In short: as §1

Chain of CK1δ (P48730 whole entry): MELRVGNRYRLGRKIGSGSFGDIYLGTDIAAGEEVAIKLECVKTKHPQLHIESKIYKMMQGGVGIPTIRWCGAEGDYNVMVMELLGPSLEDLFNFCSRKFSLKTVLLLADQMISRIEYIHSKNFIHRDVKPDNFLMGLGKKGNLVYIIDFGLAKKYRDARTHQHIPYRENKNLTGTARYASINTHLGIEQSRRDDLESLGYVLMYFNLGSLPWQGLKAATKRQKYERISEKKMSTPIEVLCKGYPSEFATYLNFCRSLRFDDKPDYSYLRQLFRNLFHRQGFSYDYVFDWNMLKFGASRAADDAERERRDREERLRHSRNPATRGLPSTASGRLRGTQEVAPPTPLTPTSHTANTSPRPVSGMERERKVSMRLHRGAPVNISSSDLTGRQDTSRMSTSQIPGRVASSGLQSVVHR
Chain of CK1ε (P49674 whole entry): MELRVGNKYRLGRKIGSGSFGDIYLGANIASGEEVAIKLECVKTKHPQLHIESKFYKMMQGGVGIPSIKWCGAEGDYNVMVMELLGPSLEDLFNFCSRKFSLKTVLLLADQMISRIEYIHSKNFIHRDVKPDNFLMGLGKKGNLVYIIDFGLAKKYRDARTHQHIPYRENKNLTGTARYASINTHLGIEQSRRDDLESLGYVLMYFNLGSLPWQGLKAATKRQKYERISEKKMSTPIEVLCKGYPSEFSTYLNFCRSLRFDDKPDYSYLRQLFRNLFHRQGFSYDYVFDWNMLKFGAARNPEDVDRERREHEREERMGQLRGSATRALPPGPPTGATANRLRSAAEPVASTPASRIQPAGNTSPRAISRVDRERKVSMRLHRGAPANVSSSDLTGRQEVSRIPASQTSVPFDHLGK

IC50 [1] [nM]	IC50 [2] [nM]	SMILES
0.349	2.94	Cc1nc(-c2ccc(F)cc2)c(-c2ccc3nc(NC(=O)c4cncc(-c5ccc(F)nc5)c4)cn3n2)n1C [Compound 406, 6′-Fluoro-N-(6-(4-(4-fluorophenyl)-1,2-dimethyl-1H-imidazol-5-yl)imidazo[1,2-b]pyridazin-2-yl)-[3,3′-bipyridine]-5-carboxamide]
6.81	15.3	Cc1nc(-c2ccc(F)cc2)c(-c2ccc3nc(NC(=O)c4cccc(CN5CCCC5)c4)cn3n2)n1C [Compound 394, N-(6-(4-(4-fluorophenyl)-1,2-dimethyl-1H-imidazol-5-yl)imidazo[1,2-b]pyridazin-2-yl)-3-(pyrrolidin-1-ylmethyl) benzamide]
6.85	10.1	CN1CCN(c2ccc3nc(-c4ccc(F)cc4)c(-c4ccc5nc(NC(=O)c6ccncc6)cn5n4)n3n2)CC1 [Compound 223, N-(2-(4-fluorophenyl)-6-(4-methylpiperazin-1-yl)-[3,6′-biimidazo[1,2-b]pyridazin]-2′-yl)isonicotinamide]
0.446	2.86	N#CCCN1CCC(n2c(C3CC3)nc(-c3ccc(F)cc3)c2-c2ccc3nc(NC(=O)c4ccnc(F)c4)cn3n2)CC1 [Compound 122, N-(6-(1-(1-(2-cyanoethyl)piperidin-4-yl)-2-cyclopropyl-4-(4-fluorophenyl)-1H-imidazol-5-yl)imidazo[1,2-b]pyridazin-2-yl)-2-fluoroisonicotinamide]
0.259	0.599	O=C(Nc1cn2nc(-c3c(-c4ccc(F)cc4)ncn3C3CCN(Cc4ncc[nH]4)CC3)ccc2n1)c1ccnc(F)c1 [Compound 18, N-(6-(1-(1-((1H-imidazol-2-yl)methyl)piperidin-4-yl)-4-(4-fluorophenyl)-1H-imidazol-5-yl)imidazo[1,2-b]pyridazin-2-yl)-2-fluoroisonicotinamide]
1.42	10.6	Cc1nc(-c2ccc(F)cc2)c(-c2ccc3nc(NC(=O)c4ccn(C)n4)cn3n2)n1C [Compound 354, N-(6-(4-(4-fluorophenyl)-1,2-dimethyl-1H-imidazol-5-yl)imidazo[1,2-b]pyridazin-2-yl)-1-methyl-1H-pyrazole-3-carboxamide]

More lines, now with the values behind:

SMILES	IC50 [1] [nM]	IC50 [2] [nM]
CC(C)(C)c1cc(C(=O)Nc2cn3nc(-c4c(-c5ccc(F)cc5)nc5ccccn45)ccc3n2)ncn1 [Compound 202, 6-(tert-butyl)-N-(6-(2-(4-fluorophenyl)imidazo[1,2-a]pyridin-3-yl)imidazo[1,2-b]pyridazin-2-yl)pyrimidine-4-carboxamide]	9.84	28.1
CC(C)(C)C(=O)Nc1cn2nc(-c3c(-c4ccc(F)cc4)ncn3Cc3cccnc3)ccc2n1 [Compound 281, N-(6-(4-(4-fluorophenyl)-1-(pyridin-3-ylmethyl)-1H-imidazol-5-yl)imidazo[1,2-b]pyridazin-2-yl)pivalamide]	1.81	7.79
O=C(Nc1cn2nc(-c3c(-c4ccc(F)cc4)nc4ccccn34)ccc2n1)c1cncc(Cl)c1 [Compound 201, 5-chloro-N-(6-(2-(4-fluorophenyl)imidazo[1,2-a]pyridin-3-yl)imidazo[1,2-b]pyridazin-2-yl) nicotinamide]	1.21	3.04
O=C(Nc1cn2nc(-c3c(-c4ccc(F)cc4)nc4ccccn34)ccc2n1)c1csc(-c2ccncc2)n1 [Compound 187, N-(6-(2-(4-fluorophenyl)imidazo[1,2-a]pyridin-3-yl)imidazo[1,2-b]pyridazin-2-yl)-2-(pyridin-4-yl)thiazole-4-carboxamide]	10.5	30.3
O=C(Nc1cn2nc(-c3c(-c4ccc(F)cc4)ncn3C3CCN(C(=O)OC4COC4)CC3)ccc2n1)c1ccnc(F)c1 [Compound 80, oxetan-3-yl 4-(5-(2-(2-fluoroisonicotinamido)imidazo[1,2-b]pyridazin-6-yl)-4-(4-fluorophenyl)-1H-imidazol-1-yl)piperidine-1-carboxylate]	0.171	0.809
